#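 Cells were grown in 96-well plates and exposed to each compound for 48 hours at five concentrations; endpoints were interpolated linearly between bracketing concentrations, or set to the highest concentration if not reached. TGI denotes the concentration required for complete inhibition of growth.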
# Experiments:
# Assay in all cases: NCI-60 cell line screen, 48 h
# 786-0 renal = system: 786-0 renal
# A498 renal = system: A498 renal
# A549 NSCLC = system: A549 NSCLC
# ACHN renal = system: ACHN renal
# CAKI-1 renal = system: CAKI-1 renal
# CCRF-CEM leukemia = system: CCRF-CEM leukemia
# COLO 205 colon = system: COLO 205 colon
# DU-145 prostate = system: DU-145 prostate
# EKVX NSCLC = system: EKVX NSCLC
# HCC-2998 colon = system: HCC-2998 colon
# HCT-116 colon = system: HCT-116 colon
# HCT-15 colon = system: HCT-15 colon
# HL-60(TB) leukemia = system: HL-60(TB) leukemia
# HOP-62 NSCLC = system: HOP-62 NSCLC
# HOP-92 NSCLC = system: HOP-92 NSCLC
# HT29 colon = system: HT29 colon
# IGROV1 ovarian = system: IGROV1 ovarian
# K-562 leukemia = system: K-562 leukemia
# KM12 colon = system: KM12 colon
# M14 melanoma = system: M14 melanoma
# MALME-3M melanoma = system: MALME-3M melanoma
# MCF7 breast = system: MCF7 breast
# MDA-N = system: MDA-N
# MOLT-4 leukemia = system: MOLT-4 leukemia
# NCI-H23 lung = system: NCI-H23 lung
# NCI-H460 lung = system: NCI-H460 lung
# NCI/ADR-RES ovarian = system: NCI/ADR-RES ovarian
# OVCAR-4 ovarian = system: OVCAR-4 ovarian
# OVCAR-5 ovarian = system: OVCAR-5 ovarian
# OVCAR-8 ovarian = system: OVCAR-8 ovarian
# PC-3 prostate = system: PC-3 prostate
# RPMI-8226 leukemia = system: RPMI-8226 leukemia
# RXF 393 renal = system: RXF 393 renal
# SF-268 CNS = system: SF-268 CNS
# SF-295 CNS = system: SF-295 CNS
# SK-MEL-28 melanoma = system: SK-MEL-28 melanoma
# SK-MEL-5 melanoma = system: SK-MEL-5 melanoma
# SK-OV-3 ovarian = system: SK-OV-3 ovarian
# SNB-19 CNS = system: SNB-19 CNS
# SNB-75 CNS = system: SNB-75 CNS
# SR leukemia = system: SR leukemia
# SW-620 colon = system: SW-620 colon
# T-47D breast = system: T-47D breast
# TK-10 renal = system: TK-10 renal
# U251 CNS = system: U251 CNS
# UACC-257 melanoma = system: UACC-257 melanoma
# UO-31 renal = system: UO-31 renal
# HS 578T breast = system: HS 578T breast
# MDA-MB-231 breast = system: MDA-MB-231 breast
# MDA-MB-435 = system: MDA-MB-435
# NCI-H226 lung = system: NCI-H226 lung
# NCI-H522 lung = system: NCI-H522 lung
# OVCAR-3 ovarian = system: OVCAR-3 ovarian
# SF-539 CNS = system: SF-539 CNS
# SK-MEL-2 melanoma = system: SK-MEL-2 melanoma
# SN12C renal = system: SN12C renal
# UACC-62 melanoma = system: UACC-62 melanoma
# LOX IMVI melanoma = system: LOX IMVI melanoma
structure (smiles),measurement,setting,value
COc1cc(OC)c(OC)cc1/C=C/c1cc[n+](C)c2ccccc12,TGI,786-0 renal,> 100 µM
same,TGI,A498 renal,> 100 µM
same,TGI,A549 NSCLC,> 100 µM
same,TGI,ACHN renal,> 100 µM
same,TGI,CAKI-1 renal,> 100 µM
same,TGI,CCRF-CEM leukemia,80.9 µM
same,TGI,COLO 205 colon,19 µM
same,TGI,DU-145 prostate,> 100 µM
same,TGI,EKVX NSCLC,> 100 µM
same,TGI,HCC-2998 colon,> 100 µM
same,TGI,HCT-116 colon,> 100 µM
same,TGI,HCT-15 colon,> 100 µM
same,TGI,HL-60(TB) leukemia,33 µM
same,TGI,HOP-62 NSCLC,> 100 µM
same,TGI,HOP-92 NSCLC,76.2 µM
same,TGI,HT29 colon,> 100 µM
same,TGI,IGROV1 ovarian,> 100 µM
same,TGI,K-562 leukemia,19.4 µM
same,TGI,KM12 colon,75 µM
same,TGI,M14 melanoma,> 100 µM
same,TGI,MALME-3M melanoma,> 100 µM
same,TGI,MCF7 breast,> 100 µM
same,TGI,MDA-N,> 100 µM
same,TGI,MOLT-4 leukemia,> 100 µM
same,TGI,NCI-H23 lung,97.4 µM
same,TGI,NCI-H460 lung,> 100 µM
same,TGI,NCI/ADR-RES ovarian,> 100 µM
same,TGI,OVCAR-4 ovarian,> 100 µM
same,TGI,OVCAR-5 ovarian,> 100 µM
same,TGI,OVCAR-8 ovarian,> 100 µM
same,TGI,PC-3 prostate,75.1 µM
same,TGI,RPMI-8226 leukemia,> 100 µM
same,TGI,RXF 393 renal,> 100 µM
same,TGI,SF-268 CNS,> 100 µM
same,TGI,SF-295 CNS,> 100 µM
same,TGI,SK-MEL-28 melanoma,> 100 µM
same,TGI,SK-MEL-5 melanoma,26.4 µM
same,TGI,SK-OV-3 ovarian,> 100 µM
same,TGI,SNB-19 CNS,> 100 µM
same,TGI,SNB-75 CNS,> 100 µM
same,TGI,SR leukemia,> 100 µM
same,TGI,SW-620 colon,> 100 µM
same,TGI,T-47D breast,> 100 µM
same,TGI,TK-10 renal,> 100 µM
same,TGI,U251 CNS,> 100 µM
same,TGI,UACC-257 melanoma,50.9 µM
same,TGI,UO-31 renal,> 100 µM
CNC(=S)/C(C#N)=C(\N)N1CCCC1,TGI,786-0 renal,> 100 µM
same,TGI,A498 renal,> 100 µM
same,TGI,A549 NSCLC,> 100 µM
same,TGI,ACHN renal,> 100 µM
same,TGI,CAKI-1 renal,> 100 µM
same,TGI,CCRF-CEM leukemia,> 100 µM
same,TGI,COLO 205 colon,> 100 µM
same,TGI,DU-145 prostate,> 100 µM
same,TGI,EKVX NSCLC,> 100 µM
same,TGI,HCC-2998 colon,> 100 µM
same,TGI,HCT-116 colon,> 100 µM
same,TGI,HCT-15 colon,> 100 µM
same,TGI,HL-60(TB) leukemia,> 100 µM
same,TGI,HOP-62 NSCLC,> 100 µM
same,TGI,HS 578T breast,> 100 µM
same,TGI,HT29 colon,> 100 µM
same,TGI,IGROV1 ovarian,> 100 µM
same,TGI,K-562 leukemia,> 100 µM
same,TGI,KM12 colon,> 100 µM
same,TGI,MALME-3M melanoma,> 100 µM
same,TGI,MDA-MB-231 breast,> 100 µM
same,TGI,MDA-MB-435,> 100 µM
same,TGI,MDA-N,> 100 µM
same,TGI,MOLT-4 leukemia,> 100 µM
same,TGI,NCI-H226 lung,> 100 µM
same,TGI,NCI-H23 lung,> 100 µM
same,TGI,NCI-H460 lung,> 100 µM
same,TGI,NCI-H522 lung,> 100 µM
same,TGI,NCI/ADR-RES ovarian,> 100 µM
same,TGI,OVCAR-3 ovarian,> 100 µM
same,TGI,OVCAR-5 ovarian,> 100 µM
same,TGI,OVCAR-8 ovarian,> 100 µM
same,TGI,PC-3 prostate,> 100 µM
same,TGI,RPMI-8226 leukemia,> 100 µM
same,TGI,RXF 393 renal,> 100 µM
same,TGI,SF-268 CNS,> 100 µM
same,TGI,SF-539 CNS,> 100 µM
same,TGI,SK-MEL-2 melanoma,> 100 µM
same,TGI,SK-MEL-28 melanoma,> 100 µM
same,TGI,SK-MEL-5 melanoma,> 100 µM
same,TGI,SK-OV-3 ovarian,> 100 µM
same,TGI,SN12C renal,> 100 µM
same,TGI,SNB-19 CNS,> 100 µM
same,TGI,SR leukemia,> 100 µM
same,TGI,SW-620 colon,> 100 µM
same,TGI,T-47D breast,> 100 µM
same,TGI,TK-10 renal,> 100 µM
same,TGI,U251 CNS,> 100 µM
same,TGI,UACC-62 melanoma,> 100 µM
same,TGI,UO-31 renal,> 100 µM
COC[C@H]1C(=O)NCC(=O)N2N=CCC[C@H]2C(=O)N(O)[C@H](C)C(=O)O[C@@H](C(C)C)[C@H](NC(=O)[C@@](C)(O)[C@]2(O)CC[C@@H](CC(C)C)[C@H](C)O2)C(=O)N2NCCC[C@@H]2C(=O)N1O,TGI,ACHN renal,0.147 µM
same,TGI,COLO 205 colon,0.0319 µM
same,TGI,DU-145 prostate,0.168 µM
same,TGI,HCC-2998 colon,0.0279 µM
same,TGI,HCT-15 colon,0.253 µM
same,TGI,HOP-62 NSCLC,0.0322 µM
same,TGI,HOP-92 NSCLC,0.0334 µM
same,TGI,HT29 colon,0.0307 µM
same,TGI,K-562 leukemia,> 100 µM
same,TGI,KM12 colon,0.0276 µM
same,TGI,LOX IMVI melanoma,0.0316 µM
same,TGI,M14 melanoma,0.0355 µM
same,TGI,MALME-3M melanoma,0.0307 µM
same,TGI,MCF7 breast,0.0297 µM
same,TGI,MDA-N,0.0323 µM
same,TGI,NCI-H23 lung,0.0312 µM
same,TGI,OVCAR-3 ovarian,0.0362 µM
same,TGI,OVCAR-5 ovarian,0.0341 µM
same,TGI,PC-3 prostate,0.0318 µM
same,TGI,RPMI-8226 leukemia,> 100 µM
same,TGI,SF-295 CNS,0.0311 µM
same,TGI,SF-539 CNS,0.0297 µM
same,TGI,SK-MEL-2 melanoma,0.0276 µM
same,TGI,SK-MEL-28 melanoma,0.0315 µM
same,TGI,SNB-75 CNS,< 0.0159 µM
same,TGI,SW-620 colon,0.03 µM
same,TGI,TK-10 renal,0.0322 µM
same,TGI,U251 CNS,0.03 µM
same,TGI,UACC-257 melanoma,0.0328 µM
same,TGI,UACC-62 melanoma,0.0322 µM
same,TGI,UO-31 renal,0.341 µM
